Source: ChEMBL document CHEMBL1201862, “PubChem BioAssay data set” (2004)
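Exposure lasted 48 hours, with cells grown in 96-well plates and compounds tested at five concentrations. GI50 is the concentration that inhibits growth by half.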 Calls of active or inactive are those of the source. Rule as the data show it: active = GI50 up to about 1.1 µM and inactive = higher.

Tests used:
Experiment in all cases: NCI tumour cell line growth inhibition, 48 h
SW-620 = test system: SW-620
OVCAR-4 = test system: OVCAR-4
786-0 = test system: 786-0
HOP-62 = test system: HOP-62
SK-MEL-2 = test system: SK-MEL-2
HCT-15 = test system: HCT-15
TK-10 = test system: TK-10
SNB-19 = test system: SNB-19
MDA-MB-435 = test system: MDA-MB-435
SF-539 = test system: SF-539
Malme-3M = test system: Malme-3M
KM12 = test system: KM12
SNB-75 = test system: SNB-75
OVCAR-3 = test system: OVCAR-3
A549 = test system: A549
ACHN = test system: ACHN
IGROV-1 = test system: IGROV-1
MDA-N = test system: MDA-N
COLO 205 = test system: COLO 205
PC-3 = test system: PC-3
MDA-MB-231 = test system: MDA-MB-231
UO-31 = test system: UO-31
NCI-H23 = test system: NCI-H23
DU-145 = test system: DU-145
HCC 2998 = test system: HCC 2998
BT-549 = test system: BT-549
CAKI-1 = test system: CAKI-1
CCRF-CEM = test system: CCRF-CEM
HL-60 = test system: HL-60
NCI-H226 = test system: NCI-H226
SR = test system: SR
UACC-257 = test system: UACC-257
A498 = test system: A498
MOLT-4 = test system: MOLT-4
NCI-H460 = test system: NCI-H460
SK-MEL-28 = test system: SK-MEL-28
RXF 393 = test system: RXF 393
T47D = test system: T47D
Hs-578T = test system: Hs-578T
OVCAR-5 = test system: OVCAR-5
M14 = test system: M14
UACC-62 = test system: UACC-62
OVCAR-8 = test system: OVCAR-8
HOP-92 = test system: HOP-92
SF-268 = test system: SF-268
HT-29 = test system: HT-29
SK-MEL-5 = test system: SK-MEL-5
HCT-116 = test system: HCT-116
SN12C = test system: SN12C
RPMI-8226 = test system: RPMI-8226
EKVX = test system: EKVX
MCF7 = test system: MCF7
U-251 = test system: U-251
K562 = test system: K562
NCI/ADR-RES = test system: NCI/ADR-RES
NCI-H522 = test system: NCI-H522
SK-OV-3 = test system: SK-OV-3
SF-295 = test system: SF-295
LOX IMVI = test system: LOX IMVI

Cn1c(CC(O)c2nc3ccccc3n2C)nc2ccccc21 (configuration not stated)
GI50 (SW-620): > 16 µM (inactive) | GI50 (OVCAR-4): > 23.3 µM (inactive) | GI50 (786-0): > 44.6 µM (inactive) | GI50 (HOP-62): > 12.3 µM (inactive) | GI50 (SK-MEL-2): > 31.3 µM (inactive) | GI50 (HCT-15): > 16 µM | GI50 (TK-10): > 25.1 µM (inactive) | GI50 (SNB-19): > 36.6 µM (inactive) | GI50 (MDA-MB-435): > 18.5 µM (inactive) | GI50 (SF-539): > 39.1 µM (inactive) | GI50 (Malme-3M): > 21.1 µM (inactive) | GI50 (KM12): > 100 µM (inactive) | GI50 (SNB-75): > 100 µM (inactive) | GI50 (OVCAR-3): > 13.1 µM (inactive) | GI50 (A549): > 56.6 µM (inactive) | GI50 (ACHN): > 23.6 µM (inactive) | GI50 (IGROV-1): > 17.4 µM (inactive) | GI50 (MDA-N): > 100 µM (inactive) | GI50 (COLO 205): > 28.4 µM (inactive) | GI50 (PC-3): > 29.2 µM (inactive) | GI50 (MDA-MB-231): > 34.8 µM (inactive) | GI50 (UO-31): > 6.37 µM (inactive) | GI50 (NCI-H23): > 17.6 µM (inactive) | GI50 (DU-145): > 14.6 µM (inactive) | GI50 (HCC 2998): > 100 µM (inactive) | GI50 (BT-549): > 34.4 µM (inactive) | GI50 (CAKI-1): > 100 µM (inactive) | GI50 (CCRF-CEM): 2.65 µM (inactive) | GI50 (HL-60): 0.413 µM (active) | GI50 (NCI-H226): > 48.3 µM (inactive) | GI50 (SR): > 100 µM (inactive) | GI50 (UACC-257): > 19.1 µM (inactive) | GI50 (A498): > 32.9 µM (inactive) | GI50 (MOLT-4): > 13.7 µM (inactive) | GI50 (NCI-H460): > 27.4 µM (inactive) | GI50 (SK-MEL-28): > 32.9 µM (inactive) | GI50 (RXF 393): > 24.7 µM (inactive) | GI50 (T47D): > 8.57 µM (inactive) | GI50 (Hs-578T): > 14.5 µM (inactive) | GI50 (OVCAR-5): > 59.7 µM (inactive) | GI50 (M14): > 29.2 µM (inactive) | GI50 (UACC-62): > 34.8 µM (inactive) | GI50 (OVCAR-8): > 27 µM (inactive) | GI50 (HOP-92): > 24.4 µM (inactive) | GI50 (SF-268): > 16.2 µM (inactive) | GI50 (HT-29): > 32.8 µM (inactive) | GI50 (SK-MEL-5): > 32.8 µM (inactive) | GI50 (HCT-116): > 23.7 µM (inactive) | GI50 (SN12C): > 36 µM (inactive) | GI50 (RPMI-8226): > 11.5 µM (inactive) | GI50 (EKVX): > 100 µM (inactive) | GI50 (MCF7): > 15.9 µM (inactive) | GI50 (U-251): > 28 µM (inactive) | GI50 (K562): > 9.51 µM (inactive) | GI50 (NCI/ADR-RES): 29.9 µM (inactive) | GI50 (NCI-H522): > 6.1 µM (inactive) | GI50 (SK-OV-3): > 30.4 µM (inactive) | GI50 (SF-295): > 100 µM (inactive) | GI50 (LOX IMVI): > 28.8 µM (inactive)

OC(CC(O)(C(F)(F)Cl)C(F)(F)Cl)c1ccccc1 (configuration not stated)
GI50 (SW-620): > 10 µM (inactive) | GI50 (OVCAR-4): > 10 µM (inactive) | GI50 (786-0): < 0.001 µM (active) | GI50 (HOP-62): > 10 µM (inactive) | GI50 (SK-MEL-2): > 10 µM (inactive) | GI50 (HCT-15): > 10 µM | GI50 (TK-10): > 10 µM (inactive) | GI50 (SNB-19): > 10 µM (inactive) | GI50 (MDA-MB-435): < 0.001 µM (active) | GI50 (SF-539): > 10 µM (inactive) | GI50 (Malme-3M): > 10 µM (inactive) | GI50 (KM12): > 10 µM (inactive) | GI50 (SNB-75): > 10 µM (inactive) | GI50 (OVCAR-3): > 10 µM (inactive) | GI50 (A549): > 10 µM (inactive) | GI50 (ACHN): > 10 µM (inactive) | GI50 (IGROV-1): 0.0258 µM (active) | GI50 (MDA-N): > 10 µM (inactive) | GI50 (COLO 205): > 10 µM (inactive) | GI50 (PC-3): > 10 µM (inactive) | GI50 (MDA-MB-231): > 10 µM (inactive) | GI50 (NCI-H23): > 10 µM (inactive) | GI50 (DU-145): > 10 µM (inactive) | GI50 (HCC 2998): > 10 µM (inactive) | GI50 (BT-549): > 10 µM (inactive) | GI50 (CAKI-1): > 10 µM (inactive) | GI50 (CCRF-CEM): > 10 µM (inactive) | GI50 (HL-60): > 10 µM (inactive) | GI50 (NCI-H226): > 10 µM (inactive) | GI50 (SR): > 10 µM (inactive) | GI50 (UACC-257): > 10 µM (inactive) | GI50 (A498): 0.0107 µM (active) | GI50 (MOLT-4): > 10 µM (inactive) | GI50 (NCI-H460): > 10 µM (inactive) | GI50 (SK-MEL-28): > 10 µM (inactive) | GI50 (RXF 393): > 10 µM (inactive) | GI50 (T47D): > 10 µM (inactive) | GI50 (Hs-578T): > 10 µM (inactive) | GI50 (OVCAR-5): > 10 µM (inactive) | GI50 (M14): < 0.001 µM (active) | GI50 (UACC-62): > 10 µM (inactive) | GI50 (OVCAR-8): > 10 µM (inactive) | GI50 (HOP-92): > 10 µM (inactive) | GI50 (SF-268): > 10 µM (inactive) | GI50 (HT-29): > 10 µM (inactive) | GI50 (SK-MEL-5): 0.00809 µM (active) | GI50 (HCT-116): > 10 µM (inactive) | GI50 (SN12C): > 10 µM (inactive) | GI50 (RPMI-8226): > 10 µM (inactive) | GI50 (EKVX): > 10 µM (inactive) | GI50 (MCF7): > 10 µM (inactive) | GI50 (U-251): > 10 µM (inactive) | GI50 (K562): > 10 µM (inactive) | GI50 (NCI/ADR-RES): > 10 µM (inactive) | GI50 (NCI-H522): > 10 µM (inactive) | GI50 (SK-OV-3): > 10 µM (inactive) | GI50 (SF-295): > 10 µM (inactive) | GI50 (LOX IMVI): > 10 µM (inactive)
